Laboratory results as given in the supplement of paper PMC5908809.

How the values were obtained:
[1] = tested on: normal NK cells expanded with K562-aAPC; test: percent inhibition of viability; higher = more inhibition; settings: 72 h, IL-2 2.5 ng/mL
Description: (§1)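 Drug sensitivity and resistance testing on K562-aAPC-expanded normal NK cells: 5 concentrations (10-fold steps over a 10,000-fold range), 72 h at 37 °C, viability by CellTiter-Glo normalised to DMSO and benzethonium chloride controls; DSS from the fitted curve.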

DERL-7 (IL-2 2.5 ng/mL) [2] = test: as above; settings: 72 h
IMC-1 (IL-2 20 ng/mL) [3] = test: as above; settings: 72 h
KAI3 (IL-2 2.5 ng/mL) [4] = test: as above; settings: 72 h
KHYG-1 (IL-2 2.5 ng/mL) [5] = test: as above; settings: 72 h
NK-92 (IL-2 2.5 ng/mL) [6] = test: as above; settings: 72 h
NK-YS (IL-2 2.5 ng/mL) [7] = test: as above; settings: 72 h
NKL (IL-2 2.5 ng/mL) [8] = test: as above; settings: 72 h
SNK-6 (IL-2 2.5 ng/mL) [9] = test: as above; settings: 72 h
YT (IL-2 2.5 ng/mL) [10] = test: as above; settings: 72 h
[11] = tested on: normal primary NK cells, pool 1 (3 donors) (IL-2 2.5 ng/mL); test: as above; settings: 72 h
[12] = tested on: normal primary NK cells, pool 1 (3 donors), resting (IL-2 0 ng/mL); test: as above; settings: 72 h
[13] = tested on: normal primary NK cells, pool 2 (3 donors) (IL-2 2.5 ng/mL); test: as above; settings: 72 h
[14] = tested on: normal primary NK cells, pool 3 (3 donors) (IL-2 2.5 ng/mL); test: as above; settings: 72 h
[15] = tested on: normal NK cells expanded with K562-aAPC; test: drug sensitivity score (DSS) (DSS units); higher = more sensitive; extreme values may be limits of the assay; settings: 72 h; IL-2 2.5 ng/mL
Description: as §1

DERL-7 (IL-2 2.5 ng/mL) [16] = test: as above; settings: 72 h
IMC-1 (IL-2 20 ng/mL) [17] = test: as above; settings: 72 h
KAI3 (IL-2 2.5 ng/mL) [18] = test: as above; settings: 72 h
KHYG-1 (IL-2 2.5 ng/mL) [19] = test: as above; settings: 72 h
NK-92 (IL-2 2.5 ng/mL) [20] = test: as above; settings: 72 h
NK-YS (IL-2 2.5 ng/mL) [21] = test: as above; settings: 72 h
NKL (IL-2 2.5 ng/mL) [22] = test: as above; settings: 72 h
SNK-6 (IL-2 2.5 ng/mL) [23] = test: as above; settings: 72 h
YT (IL-2 2.5 ng/mL) [24] = test: as above; settings: 72 h
[25] = tested on: normal primary NK cells, pool 1 (3 donors) (IL-2 2.5 ng/mL); test: as above; settings: 72 h
[26] = tested on: normal primary NK cells, pool 1 (3 donors), resting (IL-2 0 ng/mL); test: as above; settings: 72 h
[27] = tested on: normal primary NK cells, pool 2 (3 donors) (IL-2 2.5 ng/mL); test: as above; settings: 72 h
[28] = tested on: normal primary NK cells, pool 3 (3 donors) (IL-2 2.5 ng/mL); test: as above; settings: 72 h

FC(F)(F)c1ccc(/C=C/c2nc(COc3ccc(CCCCn4ccnn4)cc3)co2)cc1 [Mubritinib] (max concentration tested 1000 nM)
percent inhibition of viability [%]
Settings | 0.1 nM | 1 nM | 10 nM | 100 nM | 1000 nM
DERL-7 (IL-2 2.5 ng/mL) [2] | 1.75 | 0.44 | 5.74 | 24.8 | 27
IMC-1 (IL-2 20 ng/mL) [3] | -1.73 | -4.86 | 37.2 | 86.6 | 31.2
KAI3 (IL-2 2.5 ng/mL) [4] | 3.33 | -9.68 | -0.43 | 26.5 | 45.4
KHYG-1 (IL-2 2.5 ng/mL) [5] | -2.15 | -7.85 | 17 | 42.5 | 66.5
NK-92 (IL-2 2.5 ng/mL) [6] | -8.31 | -12.6 | 7.62 | 30.8 | 42.3
NK-YS (IL-2 2.5 ng/mL) [7] | -3.84 | -4.99 | 8.6 | 64 | 81.2
NKL (IL-2 2.5 ng/mL) [8] | -16.4 | -8.04 | 7.63 | 38.2 | 57.6
SNK-6 (IL-2 2.5 ng/mL) [9] | -13.7 | -12.2 | 4.91 | 4.95 | 7.75
YT (IL-2 2.5 ng/mL) [10] | -2.71 | -3.53 | 24 | 44.2 | 39.6
[1] | -6.01 | -7.06 | -7.66 | 9.52 | 14.1
[11] | -7.65 | 0.13 | 21.1 | 48.2 | 50.2
[12] | 10 | 1.44 | 28.5 | 61 | 64.8
[13] | -5.29 | -7.28 | 16.6 | 27.6 | 34.2
[14] | -9.77 | -2.9 | 15.1 | 21.5 | 34

Settings | drug sensitivity score
DERL-7 (IL-2 2.5 ng/mL) [16] | 4.52
IMC-1 (IL-2 20 ng/mL) [17] | 20.6
KAI3 (IL-2 2.5 ng/mL) [18] | 5.59
KHYG-1 (IL-2 2.5 ng/mL) [19] | 9.82
NK-92 (IL-2 2.5 ng/mL) [20] | 6.23
NK-YS (IL-2 2.5 ng/mL) [21] | 13
NKL (IL-2 2.5 ng/mL) [22] | 8.04
SNK-6 (IL-2 2.5 ng/mL) [23] | 0
YT (IL-2 2.5 ng/mL) [24] | 11
[15] | 0.75
[25] | 11.5
[26] | 14.7
[27] | 7.39
[28] | 4.94
